Patent US20240207427A1, “SELECTIVE DRUG RELEASE FROM INTERNALIZED CONJUGATES OF BIOLOGICALLY ACTIVE COMPOUNDS” (priority 2021, published 2024)
Read-outs that look alike come from different tables or passages of the source.

Key:
Assay type in all cases: cell-based
[1] = test system: anaplastic large cell lymphoma cells (DELBVR); assay: In vitro potency (CellTiter-Glo, 96 h), DELBVR
How it was run: (§1)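 IC50 (ng/mL or nmol/L) derived from CellTiter-Glo luminescence after 96 h exposure at 37 °C to serial dilutions of ADC or CPT free drug. Log-phase cells had been plated 24 h beforehand in RPMI 1640 containing 20% FBS.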

Ls174T cells = assay: In vitro potency (CellTiter-Glo, 96 h), Ls174T; details: Homo sapiens, LS174T
How it was run: as §1

[2] = test system: anaplastic large cell lymphoma cells (Karpas299); assay: In vitro potency (CellTiter-Glo, 96 h), Karpas299; details: Homo sapiens, KARPAS-299, 96 h
How it was run: as §1

[3] = test system: acute myeloid leukemia cells (MOLM-13); assay: In vitro potency (CellTiter-Glo, 96 h), MOLM-13; details: Homo sapiens, MOLM-13, 96 h
How it was run: as §1

[4] = test system: non-small-cell lung cancer cells (Calu1); assay: In vitro potency (CellTiter-Glo, 96 h), Calu1; details: Homo sapiens, Calu-1, 96 h
How it was run: as §1

[5] = test system: renal carcinoma cells (786-O); assay: In vitro potency (CellTiter-Glo, 96 h), 786-O; details: Homo sapiens, 786-0, 96 h
How it was run: as §1

[6] = test system: breast cancer cells (MDA-MB-231); assay: In vitro potency (CellTiter-Glo, 96 h), MDA-MB-231; details: Homo sapiens, MDA-MB-231, 96 h
How it was run: as §1

[7] = test system: Hodgkin's lymphoma cells (L540cy); assay: In vitro potency (CellTiter-Glo, 96 h), L540cy
How it was run: as §1

[8] = test system: pancreatic cancer cells (BxPC3); assay: In vitro potency (CellTiter-Glo, 96 h), BxPC3; details: Homo sapiens, BXPC-3, 96 h
How it was run: as §1

melanoma cells (A2058) = assay: In vitro potency (CellTiter-Glo, 96 h), A2058; details: Homo sapiens, A2058, 96 h
How it was run: as §1

[9] = test system: B-lymphocyte cancer cells (SU-DHL4); assay: In vitro potency (CellTiter-Glo, 96 h), SU-DHL-4; details: Homo sapiens, SU-DHL-4, 96 h
How it was run: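 Growth inhibition after 96 h at 37 °C with test article, measured by luminescence; cells in RPMI 1640, 20% FBS.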

[10] = test system: anaplastic large cell lymphoma cells (DEL); assay: In vitro potency (CellTiter-Glo, 96 h), DEL
How it was run: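 Medium: RPMI 1640 + 20% FBS. Pre-seeding: 24 h. Treatment: ADC or CPT free drug serial dilutions, 96 h, 37 °C. Read-out: luminescence; IC50 in ng/mL and nmol/L.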

[11] = CPT free drugs, Table 24, CellTiter-Glo after 96 h exposure, read-out: IC50 (nmol/L) DELBVR
[12] = CPT free drugs, Table 24, CellTiter-Glo after 96 h exposure, read-out: IC50 (nmol/L) Ls174T
[13] = CPT free drugs, Table 24, CellTiter-Glo after 96 h exposure, read-out: IC50 (nmol/L) Karpas299
[14] = CPT free drugs, Table 24, CellTiter-Glo after 96 h exposure, read-out: IC50 (nmol/L) MOLM-13
[15] = CPT free drugs, Table 24, CellTiter-Glo after 96 h exposure, read-out: IC50 (nmol/L) Calu1
[16] = CPT free drugs, Table 24, CellTiter-Glo after 96 h exposure, read-out: IC50 (nmol/L) 786-O
[17] = CPT free drugs, Table 24, CellTiter-Glo after 96 h exposure, read-out: IC50 (nmol/L) MDAMB231
[18] = CPT free drugs, Table 24, CellTiter-Glo after 96 h exposure, read-out: IC50 (nmol/L) L540cy
[19] = CPT free drugs, Table 24, CellTiter-Glo after 96 h exposure, read-out: IC50 (nmol/L) BxPC3
[20] = CPT free drugs, Table 24, CellTiter-Glo after 96 h exposure, read-out: IC50 (nmol/L) A2058
[21] = CPT free drugs, Table 24, CellTiter-Glo after 96 h exposure, read-out: IC50 (nmol/L) SU-DHL-4
[22] = CPT free drugs, Table 24, CellTiter-Glo after 96 h exposure, read-out: IC50 (nmol/L) DEL

Row | Compound | IC50 [1, 11] | IC50 (Ls174T cells; [12]) | IC50 [2, 13] | IC50 [3, 14] | IC50 [4, 15] | IC50 [5, 16] | IC50 [6, 17] | IC50 [7, 18] | IC50 [8, 19] | IC50 (melanoma cells (A2058); [20]) | IC50 [9, 21] | IC50 [10, 22] | also measured
1 | CC[C@@]1(O)C(=O)OCc2c1cc1n(c2=O)Cc2c-1nc1cc(F)cc(F)c1c2CN [Compound 2ac] | 3 nmol/L | 7 nmol/L | 8 nmol/L | 17 nmol/L | 68 nmol/L | 9 nmol/L | 51 nmol/L | 4 nmol/L | 16 nmol/L | 3 nmol/L | 4 nmol/L | 2 nmol/L | 
2 | CC[C@@]1(O)C(=O)OCc2c1cc1n(c2=O)Cc2c-1nc1cc(F)c(C)c(Br)c1c2CN [Compound 2q, (S)-11-(aminomethyl)-10-bromo-4-ethyl-8-fluoro-4-hydroxy-9-methyl-1,12-dihydro-14H-pyrano[3′,4′:6,7]indolizino[1,2-b]quinoline-3,14(4H)-dione] |  |  |  |  |  |  |  |  |  |  |  |  | IC50 ([1]; read-out: IC50 (nmol/L) DELBVR, CPT free drugs, Table 24, CellTiter-Glo after 96 h exposure): 1 nmol/L; IC50 (Ls174T cells; 96 h, read-out: IC50 (nmol/L) Ls174T, CPT free drugs, Table 24, CellTiter-Glo after 96 h exposure): 5 nmol/L; IC50 ([2]; read-out: IC50 (nmol/L) Karpas299, CPT free drugs, Table 24, CellTiter-Glo after 96 h exposure): 2.6 nmol/L; IC50 ([3]; read-out: IC50 (nmol/L) MOLM-13, CPT free drugs, Table 24, CellTiter-Glo after 96 h exposure): 17.3 nmol/L; IC50 ([4]; read-out: IC50 (nmol/L) Calu1): 78 nmol/L; IC50 ([5]; read-out: IC50 (nmol/L) 786-O, CPT free drugs, Table 24, CellTiter-Glo after 96 h exposure): 4 nmol/L; IC50 ([6]; read-out: IC50 (nmol/L) MDAMB231, CPT free drugs, Table 24, CellTiter-Glo after 96 h exposure): 5.4 nmol/L; IC50 ([7]; read-out: IC50 (nmol/L) L540cy, CPT free drugs, Table 24, CellTiter-Glo after 96 h exposure): 4 nmol/L; IC50 ([8]; read-out: IC50 (nmol/L) BxPC3, CPT free drugs, Table 24, CellTiter-Glo after 96 h exposure): 50.8 nmol/L; IC50 (melanoma cells (A2058); read-out: IC50 (nmol/L) A2058): 4.8 nmol/L; IC50 ([9]; read-out: IC50 (nmol/L) SU-DHL-4, CPT free drugs, Table 24, CellTiter-Glo after 96 h exposure): 1.5 nmol/L; IC50 ([10]; read-out: IC50 (nmol/L) DEL, CPT free drugs, Table 24, CellTiter-Glo after 96 h exposure): 1 nmol/L
3 | CC[C@@]1(O)C(=O)OCc2c1cc1n(c2=O)Cc2c-1nc1cc3c(cc1c2CNCCCO)OCO3 [Compound 7o] |  |  |  |  |  |  |  |  |  |  |  |  | IC50 ([1]; read-out: DELBVR IC50, camptothecin free drug, 96 h): 19 nmol/L; IC50 (Ls174T cells; 96 h, read-out: Ls174T IC50, camptothecin free drug, 96 h): 25 nmol/L; IC50 ([2]; read-out: Karpas299 IC50, camptothecin free drug, 96 h): 42 nmol/L; IC50 ([3]; read-out: MOLM-13 IC50, camptothecin free drug, 96 h): 115 nmol/L; IC50 ([4]; read-out: Calu1 IC50): 839 nmol/L; IC50 ([5]; read-out: 786-O IC50, camptothecin free drug, 96 h): 52 nmol/L; IC50 ([6]; read-out: MDAMB231 IC50, camptothecin free drug, 96 h): 275 nmol/L; IC50 ([7]; read-out: L540cy IC50, camptothecin free drug, 96 h): 26 nmol/L; IC50 ([8]; read-out: BxPC3 IC50, camptothecin free drug, 96 h): 47 nmol/L; IC50 (melanoma cells (A2058); read-out: A2058 IC50): 16 nmol/L; IC50 ([9]; read-out: SU-DHL-4 IC50, camptothecin free drug, 96 h): 27 nmol/L; IC50 ([10]; read-out: DEL IC50, camptothecin free drug, 96 h): 10 nmol/L
4 | CC[C@@]1(O)C(=O)OCc2c1cc1n(c2=O)Cc2c-1nc1ccc(C)cc1c2CN [Compound 2a] | 3 nmol/L | 3.9 nmol/L | 9 nmol/L | 29 nmol/L | 42 nmol/L | 7 nmol/L | 5 nmol/L | 4 nmol/L | 20 nmol/L | 3 nmol/L | 4 nmol/L | 1 nmol/L | 
5 | CC[C@@]1(O)C(=O)OCc2c1cc1n(c2=O)Cc2c-1nc1ccc(F)cc1c2CN [Compound 2b] | 5.7 nmol/L | 14 nmol/L | 18 nmol/L | 19 nmol/L | 76 nmol/L | 27 nmol/L | 17 nmol/L | 6 nmol/L | 58 nmol/L | 8 nmol/L | 13 nmol/L | 4 nmol/L | 
6 | CC[C@@]1(O)C(=O)OCc2c1cc1n(c2=O)Cc2c-1nc1ccc(O)cc1c2CN [Compound 3a] | 14 nmol/L | 37.1 nmol/L | 59.4 nmol/L | 58 nmol/L | 388 nmol/L | 52.3 nmol/L | 38.5 nmol/L | 18.2 nmol/L | 135 nmol/L | 16 nmol/L | 16.4 nmol/L | 10 nmol/L | 
